From US9382254B2, “Compounds and pharmaceutical compositions thereof for the treatment of cystic fibrosis” (Galapagos NV, priority 2013, dated 2016)
pEC50: −log10 of the molar value.

Each molecule was assayed against T1, CFTR ΔF508 mutant (Homo sapiens, UniProt P13569, DEL508-508) (assay: YFP-halide influx assay for the CFTR-ΔF508 mutation, gluconate buffer). Details: CFBE41o- cells, forskolin 10.67 μM.
T1 construct: expressed in transfected cells; host or cells: CFBE41o- (adenoviral transduction)
Assay type: cell-based
Description: The YFP halide influx assay measures the functionality of the cystic fibrosis Transmembrane Conductance regulator (CFTR) channels in the cystic fibrosis bronchial epithelium cell line CFBE41o-. The assay is used to evaluate the capacity of compounds to increase the open probability of existing CFTR channels in the membrane. It makes use of the observation that the yellow fluorescent protein (YFP) variant YFP H148Q, I152L has its fluorescence substantially quenched by halide ions like Cl^− and I^−. (Galietta, Haggie, & Verkman, 2001) (Nagai, et al., 2002)
For this purpose, CFBE41o-cells are seeded in 96 well plates (6000 CFBE cells/well). One day after seeding, the CFBE cells are transduced with adenoviral vectors that direct the expression of the CFTR ΔF508 mutant and of the YFP reporter. Cells are incubated at 27° C., 5% CO2 for 24 hours so as to allow for the proper folding and migration to the membrane of the CFTR channel or treated with a CFTR modulator during 24 hours at 37° C.
The I^−-induced quenching of fluorescence is recorded immediately after injection of I^− for 7 seconds. The capacity of a compound to increase the channel opening is directly correlated with the decrease in fluorescence, and is expressed as (1-(fluorescence after 7 seconds (F)/fluorescence before injection (F0))) and an EC50 can be derived from a (1-F/F0) vs compound concentration plot.

T1 sequence (P13569 with tags, fused parts or gaps DEL508-508): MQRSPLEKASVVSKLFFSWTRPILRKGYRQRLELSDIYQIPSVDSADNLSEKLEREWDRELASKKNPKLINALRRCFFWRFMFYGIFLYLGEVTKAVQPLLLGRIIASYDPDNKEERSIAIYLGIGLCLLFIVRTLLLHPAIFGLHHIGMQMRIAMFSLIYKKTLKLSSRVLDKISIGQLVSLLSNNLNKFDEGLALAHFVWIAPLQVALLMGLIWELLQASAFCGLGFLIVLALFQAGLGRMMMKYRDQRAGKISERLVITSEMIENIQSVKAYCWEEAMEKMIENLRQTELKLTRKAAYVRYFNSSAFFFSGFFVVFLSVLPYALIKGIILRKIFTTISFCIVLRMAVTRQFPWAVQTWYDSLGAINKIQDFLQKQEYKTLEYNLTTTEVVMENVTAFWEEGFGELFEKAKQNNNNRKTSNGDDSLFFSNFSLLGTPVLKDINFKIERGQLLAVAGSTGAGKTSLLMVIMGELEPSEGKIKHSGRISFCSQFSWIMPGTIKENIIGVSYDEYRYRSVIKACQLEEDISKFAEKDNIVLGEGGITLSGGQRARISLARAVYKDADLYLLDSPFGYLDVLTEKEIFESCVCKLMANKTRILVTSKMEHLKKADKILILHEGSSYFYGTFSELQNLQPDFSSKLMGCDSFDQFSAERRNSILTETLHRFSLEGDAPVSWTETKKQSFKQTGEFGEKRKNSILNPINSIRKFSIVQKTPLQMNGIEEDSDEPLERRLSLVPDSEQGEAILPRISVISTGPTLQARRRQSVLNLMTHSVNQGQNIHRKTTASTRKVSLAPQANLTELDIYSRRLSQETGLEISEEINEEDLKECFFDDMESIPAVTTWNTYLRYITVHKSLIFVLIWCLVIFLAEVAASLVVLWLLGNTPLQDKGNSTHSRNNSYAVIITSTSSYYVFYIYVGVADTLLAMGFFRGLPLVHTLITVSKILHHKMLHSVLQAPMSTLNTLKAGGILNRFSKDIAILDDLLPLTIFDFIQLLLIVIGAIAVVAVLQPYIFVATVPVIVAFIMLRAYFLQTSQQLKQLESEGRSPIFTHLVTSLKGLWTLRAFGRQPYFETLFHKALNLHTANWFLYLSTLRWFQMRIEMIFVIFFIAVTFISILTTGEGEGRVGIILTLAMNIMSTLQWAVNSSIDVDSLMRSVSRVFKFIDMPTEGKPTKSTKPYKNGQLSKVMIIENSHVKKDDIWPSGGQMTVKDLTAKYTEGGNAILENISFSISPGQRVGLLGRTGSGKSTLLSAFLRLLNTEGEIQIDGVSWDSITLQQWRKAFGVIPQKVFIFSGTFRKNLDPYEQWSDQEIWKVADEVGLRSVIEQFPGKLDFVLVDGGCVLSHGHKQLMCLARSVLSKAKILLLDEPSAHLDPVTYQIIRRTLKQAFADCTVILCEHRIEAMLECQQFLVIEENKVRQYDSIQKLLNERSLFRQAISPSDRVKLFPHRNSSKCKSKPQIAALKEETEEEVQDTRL

| Structure (SMILES) | pEC50 |
| --- | --- |
| NC(=O)c1cc(S(=O)(=O)N2CCCCC2)sc1NC(=O)c1cc2ccccc2s1 [Compound 10, N-(3-carbamoyl-5-(piperidin-1-ylsulfonyl)thiophen-2-yl)benzo[b] thiophene-2-carboxamide] | 6.20 |
| N#Cc1cccc(C(=O)Nc2sc(S(=O)(=O)N3CCCCC3)cc2C(N)=O)c1 [Compound 11, 2-(3-cyanobenzamido)-5-(piperidin-1-ylsulfonyl) thiophene-3-carboxamide] | 6.25 |
| NC(=O)c1cc(S(=O)(=O)N2CCCCC2)sc1NC(=O)c1ccc2ncsc2c1 [Compound 12, N-(3-carbamoyl-5-(piperidin-1-ylsulfonyl)thiophen-2-yl)benzo[d] thiazole-6-carboxamide] | 6.05 |
| NC(=O)c1cc(S(=O)(=O)N2CCCCC2)sc1NC(=O)C1CCCC1 [Compound 13, 2-(cyclopentanecarboxamido)-5-(piperidin-1-ylsulfonyl)thiophene-3-carboxamide] | 6.40 |
| NC(=O)c1cc(S(=O)(=O)N2CCCCC2)sc1NC(=O)c1cccc(F)c1 [Compound 14, 2-(3-fluorobenzamido)-5-(piperidin-1-ylsulfonyl)thiophene-3-carboxamide] | 6.45 |
| NC(=O)c1cc(S(=O)(=O)N2CCCCC2)sc1NC(=O)c1ccccc1F [Compound 19, 2-(2-fluorobenzamido)-5-(piperidin-1-ylsulfonyl)thiophene-3-carboxamide] | 6.93 |
| COc1ccc(C(=O)Nc2sc(S(=O)(=O)N3CCCCC3)cc2C(N)=O)cc1 [Compound 21, 2-(4-methoxybenzamido)-5-(piperidin-1-ylsulfonyl)thiophene-3-carboxamide] | 6.32 |
| CC(C)(C)c1ccc(C(=O)Nc2sc(S(=O)(=O)N3CCCCC3)cc2C(N)=O)s1 [Compound 23, 5-tert-butyl-N-(3-carbamoyl-5-(piperidin-1-ylsulfonyl)thiophen-2-yl) thiophene-2-carboxamide] | 6.19 |
| COc1ccccc1C(=O)Nc1sc(S(=O)(=O)N2CCCCC2)cc1C(N)=O [Compound 24, 2-(2-methoxybenzamido)-5-(piperidin-1-ylsulfonyl)thiophene-3-carboxamide] | 6.11 |
| NC(=O)c1cc(S(=O)(=O)N2CCCCC2)sc1NC(=O)c1ccc(F)cc1 [Compound 26, 2-(4-fluorobenzamido)-5-(piperidin-1-ylsulfonyl)thiophene-3-carboxamide] | 6.54 |
| CC(C)(C)c1ccc(C(=O)Nc2sc(S(=O)(=O)N3CCCCC3)cc2C(N)=O)cc1 [Compound 27, 2-(4-tert-butylbenzamido)-5-(piperidin-1-ylsulfonyl)thiophene-3-carboxamide] | 6.54 |
| CCCC(=O)Nc1sc(S(=O)(=O)N2CCCCC2)cc1C(N)=O [Compound 28, 2-butyramido-5-(piperidin-1-ylsulfonyl)thiophene-3-carboxamide] | 6.20 |
| Cn1ccc(C(=O)Nc2sc(S(=O)(=O)N3CCCCC3)cc2C(N)=O)n1 [Compound 30, N-(3-carbamoyl-5-(piperidin-1-ylsulfonyl)thiophen-2-yl)-1-methyl-1H-pyrazole-3-carboxamide] | 6.04 |
| NC(=O)c1cc(S(=O)(=O)N2CCCCC2)sc1NC(=O)Cc1ccc(F)cc1 [Compound 32, 2-(2-(4-fluorophenyl)acetamido)-5-(piperidin-1-ylsulfonyl)thiophene-3-carboxamide] | 5.82 |
| Cc1nnc(C(=O)Nc2sc(S(=O)(=O)N3CCCCC3)cc2C(N)=O)o1 [Compound 33, N-(3-carbamoyl-5-(piperidin-1-ylsulfonyl)thiophen-2-yl)-5-methyl-1,3,4-oxadiazole-2-carboxamide] | 5.01 |
| NC(=O)c1cc(S(=O)(=O)N2CCCCC2)sc1NC(=O)c1cnccn1 [Compound 34, N-(3-carbamoyl-5-(piperidin-1-ylsulfonyl)thiophen-2-yl)pyrazine-2-carboxamide] | 6.54 |
| NC(=O)c1cc(S(=O)(=O)N2CCCCC2)sc1NC(=O)c1c[nH]cn1 [Compound 35, N-(3-carbamoyl-5-(piperidin-1-ylsulfonyl)thiophen-2-yl)-1H-imidazole-4-carboxamide] | 5.48 |
| NC(=O)c1cc(S(=O)(=O)N2CCCCC2)sc1NC(=O)C1CCC(F)(F)CC1 [Compound 37, 2-(4,4-difluorocyclohexanecarboxamide)-5-(piperidin-1-ylsulfonyl) thiophene-3-carboxamide] | 6.53 |
| NC(=O)c1cc(S(=O)(=O)N2CCCCC2)sc1NC(=O)c1ccc(F)s1 [Compound 39, N-(3-carbamoyl-5-(piperidin-1-ylsulfonyl)thiophen-2-yl)-5-fluorothiophene-2-carboxamide] | 6.53 |
| NC(=O)c1cc(S(=O)(=O)N2CCCCC2)sc1NC(=O)CCc1ccccc1 [Compound 40, 2-(3-phenylpropanamido)-5-(piperidin-1-ylsulfonyl) thiophene-3-carboxamide] | 6.24 |
| NC(=O)c1cc(S(=O)(=O)N2CCCCC2)sc1NC(=O)C1CC1 [Compound 42, 2-(cyclopropanecarboxamido)-5-(piperidin-1-ylsulfonyl) thiophene-3-carboxamide] | 6.13 |
| CC(C)(C)n1cc(C(=O)Nc2sc(S(=O)(=O)N3CCCCC3)cc2C(N)=O)cn1 [Compound 43, 1-tert-butyl-N-(3-carbamoyl-5-(piperidin-1-ylsulfonyl)thiophen-2-yl)-1H-pyrazole-4-carboxamide] | 6.17 |
| NC(=O)c1cc(S(=O)(=O)N2CCCCC2)sc1NC(=O)C1CC(F)(F)C1 [Compound 44, 2-(3,3-difluorocyclobutanecarboxamido)-5-(piperidin-1-ylsulfonyl) thiophene-3-carboxamide] | 6.16 |
| NC(=O)c1cc(S(=O)(=O)N2CCOCC2)sc1NC(=O)c1ccccc1F [Compound 46, 2-(2-fluorobenzamido)-5-(morpholinosulfonyl) thiophene-3-carboxamide] | 6.55 |
| CC(C)(C)C(=O)Nc1sc(S(=O)(=O)N2CCOCC2)cc1C(N)=O [Compound 47, 5-(morpholinosulfonyl)-2-pivalamidothiophene-3-carboxamide] | 5.57 |
| COc1ccccc1C(=O)Nc1sc(S(=O)(=O)N2CCOCC2)cc1C(N)=O [Compound 48, 2-(2-methoxybenzomido)-5-(morpholinosulfonyl) thiophene-3-carboxamide] | 6.60 |

Other lines, results leading:

| pEC50 | Structure (SMILES) |
| --- | --- |
| 6.77 | Cc1ccc(C(=O)Nc2sc(S(=O)(=O)N(C)C)cc2C(N)=O)s1 [Compound 15, N-(3-carbamoyl-5-(N,N-dimethylsulfamoyl)thiophen-2-yl)-5-methylthiophene-2-carboxamide] |
| 6.58 | NC(=O)c1cc(S(=O)(=O)N2CCCCC2)sc1NC(=O)c1ccccc1Cl [Compound 17, 2-(2-chlorobenzamido)-5-(piperidin-1-ylsulfonyl)thiophene-3-carboxamide] |
| 6.33 | COc1cccc(C(=O)Nc2sc(S(=O)(=O)N3CCCCC3)cc2C(N)=O)c1 [Compound 18, 2-(3-methoxybenzamido)-5-(piperidin-1-ylsulfonyl)thiophene-3-carboxamide] |
| 6.41 | NC(=O)c1cc(S(=O)(=O)N2CCCCC2)sc1NC(=O)c1ccc(Cl)cc1 [Compound 20, 2-(4-chlorobenzamido)-5-(piperidin-1-ylsulfonyl)thiophene-3-carboxamide] |
| 6.50 | N#Cc1ccc(C(=O)Nc2sc(S(=O)(=O)N3CCCCC3)cc2C(N)=O)cc1 [Compound 22, 2-(4-cyanobenzamido)-5-(piperidin-1-ylsulfonyl)thiophene-3-carboxamide] |
| 6.02 | N#Cc1ccccc1C(=O)Nc1sc(S(=O)(=O)N2CCCCC2)cc1C(N)=O [Compound 25, 2-(2-cyanobenzamido)-5-(piperidin-1-ylsulfonyl)thiophene-3-carboxamide] |
| 6.57 | CC(C)(C)C(=O)Nc1sc(S(=O)(=O)N2CCCCC2)cc1C(N)=O [Compound 29, 5-(piperidin-1-ylsulfonyl)-2-pivalamidothiophene-3-carboxamide] |
| 6.74 | CC1(C(=O)Nc2sc(S(=O)(=O)N3CCCCC3)cc2C(N)=O)CC1 [Compound 31, 2-(1-methylcyclopropanecarboxamido)-5-(piperidin-1-ylsulfonyl) thiophene-3-carboxamide] |
| 6.05 | NC(=O)c1cc(S(=O)(=O)N2CCCCC2)sc1NC(=O)C1(C(F)(F)F)CC1 [Compound 38, 5-(piperidin-1-ylsulfonyl)-2-(1-(trifluoromethyl)cyclopropanecarboxamido) thiophene-3-carboxamide] |
| 5.01 | NC(=O)c1cc(S(=O)(=O)N2CCCCC2)sc1NC(=O)c1cnn2cccnc12 [Compound 41, N-(3-carbamoyl-5-(piperidin-1-ylsulfonyl)thiophen-2-yl)pyrazolo[1,5-a]pyrimidine-3-carboxamide] |
| 5.89 | CC1(C(=O)Nc2sc(S(=O)(=O)N3CCOCC3)cc2C(N)=O)CC1 [Compound 45, 2-(1-methylcyclopropanecarboxamido)-5-(morpholinosulfonyl) thiophene-3-carboxamide] |
| 6.07 | CC(C)(C)c1ccc(C(=O)Nc2sc(S(=O)(=O)N3CCOCC3)cc2C(N)=O)cc1 [Compound 49, 2-(4-tert-butylbenzamido)-5-(morpholinosulfonyl) thiophene-3-carboxamide] |
